Data: publication PMC11042424, “Development of a First-in-Class RIPK1 Degrader to Enhance Antitumor Immunity” (Research Square, 2024)
“Also recorded” adds a separate entry of the source.

How the values were obtained:
[1] = system: whole cellular proteome of MDA-MB-231 cells; assay: Proteome profiling of LD4172 induced protein degradation; assay type: cell-based, human; conditions: 200 nM, 6 h
Experimental: One million MDA-MB-231 cells were seeded in 6-well plates. The following day, cells were treated in triplicate with LD4172 (200 nM) or LD4172-NC (200 nM) for 6 h. The cells were washed thrice with ice-cold PBS. The cell pellets were lysed, reduced, alkylated, and digested using EasyPep™ MS Sample Prep Kits (A45733,ThermoFisher) according to the manufacturer’s instructions. The same amount of peptide from each condition was labeled with a tandem mass tag (TMT) reagent (90113, ThermoFisher). The 10-plex TMT reagent was incubated with each peptide sample at a ratio of 1:8 (peptide:TMT label). The 10-plex labeling reactions were performed for 1 h at room temperature. The labeled peptide samples were quenched by adding 50 μL of 5% hydroxylamine and 20% formic acid solution for 5 min and then mixed. […]
Proteome Discoverer 2.4 (Thermo Fisher Scientific) was used. RAW file processing and controlling peptide- and protein-level false discovery rates, assembling proteins from peptides, and protein quantification from peptides. […] PSMs with precursor isolation interference values > 50% and average TMT-reporter ion signal-to-noise values (S/N) < 10 were excluded from quantitation. […] Protein quantification uses both unique and […] peptides. […]

[2] = Stability in mouse liver S9 fractions; assay type: in vitro ADME
[3] = system: B16F10 cells; assay: TNFα-mediated apoptosis in B16F10 cells; assay type: cell-based, mouse; conditions: 1 μM, TNFα 100 ng/mL, 72 hours
Excerpt: Figure 3 LD4172 sensitizes B16F10 cells to TNFα-mediated apoptosis. A, Representative flow cytometry dot plots of apoptosis. In all four plots, viable cells are seen in the left lower quadrant (FITC-/PI-), early apoptotic cells in the right lower quadrant (FITC+/PI-), and late apoptotic cells in the right upper quadrant (FITC+/PI+). B, Representative images of PI (red) and caspase 3/7 (Cas3/7+, green) staining of B16F10 cells. Cell death assessed by PI uptake using Cytation 5 imager. C, Western blots for the expression of cleaved caspase3, cleaved caspase7, and cleaved PARP in B16F10 cells. D, Quantification of extracellular ATP level. Western blots for the expression of HMGB1 and calreticulin in B16F10 cells. E, Immunofluorescence staining of HMGB1 in B16F10 cells. B16F10 cells were treated in the presence or absence of TNFα (100 ng/mL), Z-VAD-FMK (25 μM), LD4172 (1 μM), and/or T2I (1 μM) as indicated for 72 hours. Data are representative of three independent experiments. Error bars represent SD.
Apoptosis quantification was conducted utilizing a FITC-conjugated Annexin V/PI assay kit (556547, BD Biosciences) and analyzed through flow cytometry. Briefly, 2×10^5 of B16F10 cells were seeded onto six-well plates and treated as specified for 72 hours at 37°C. Treated and untreated cells were harvested, washed with PBS, and resuspended in 100 μl of binding buffer. […]

With `Cc1ncsc1-c1ccc([C@H](C)NC(=O)[C@@H]2C[C@@H](O)CN2C(=O)[C@@H](NC(=O)CCCCCCCCCCC(=O)NCCCn2cc(-c3ccc4c(c3)CCN4C(=O)Cc3cccc(OC(F)(F)F)c3)c3c(N)ncnc32)C(C)(C)C)cc1` [LD4172] the “degradation of off-target kinases” value [1] was “no degradation of off-target kinases was observed”, the “proteins degraded in whole cellular proteome” value ([1]; vs LD4172-NC) was “only protein showing >50% degradation; also recorded: RIPK1 was the only protein degraded” and the half-life [2] was 9.7 min. The “intrinsic clearance (CLint)” value [2] was 71.6 μL·min^− 1·mg^− 1 protein and the “cell death / apoptosis in combination with TNFα” value [3] was “significant cell death”.
